Data published in PubChem BioAssay AID330 (DTP/NCI, 2004).
Where “and” joins values, the source holds several entries; their conditions need not be identical. Identical values can stand only once. Inconclusive results and toxic doses are left out. The calls were made as follows: active = survival T/C of 150% or more; inactive = T/C below 125% in these data.

Tested on: P388 leukemia ip, CD2F1 mice, survival T/C
Assay: NCI In Vivo Anticancer Drug Screen. Data for tumor model P388 Leukemia (intraperitoneal) in CD2F1 (CDF1) mice
Conditions: endpoint: median survival time, higher = longer survival
Method in brief: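 Mice carrying the transplanted tumor received test compound or vehicle. Survival was recorded in each group, and the value is the treated-group measurement divided by that of the vehicle-treated control group.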

[1] = dose: 100.0 mg/kg/injection, schedule: Q04DX002 (ip), vehicle: saline
[2] = dose: 200.0 mg/kg/injection, schedule: Q04DX002 (ip), vehicle: saline
[3] = dose: 50.0 mg/kg/injection, schedule: Q01DX005 (ip), vehicle: Klucel (hydroxypropylcellulose) (HPC)
[4] = dose: 100.0 mg/kg/injection, schedule: Q01DX005 (ip), vehicle: Klucel (hydroxypropylcellulose) (HPC)
[5] = dose: 200.0 mg/kg/injection, schedule: Q01DX005 (ip), vehicle: Klucel (hydroxypropylcellulose) (HPC)
[6] = dose: 50.0 mg/kg/injection, schedule: Q01DX009 (ip), vehicle: saline with Tween-80
[7] = dose: 100.0 mg/kg/injection, schedule: Q01DX009 (ip), vehicle: saline with Tween-80
[8] = dose: 200.0 mg/kg/injection, schedule: Q01DX009 (ip), vehicle: saline with Tween-80
[9] = dose: 200.0 mg/kg/injection, schedule: Q04DX002 (ip), vehicle: saline with Tween-80
[10] = dose: 12.5 mg/kg/injection, schedule: Q01DX005 (ip), vehicle: saline with Tween-80
[11] = dose: 25.0 mg/kg/injection, schedule: Q01DX005 (ip), vehicle: saline with Tween-80
[12] = dose: 50.0 mg/kg/injection, schedule: Q01DX005 (ip), vehicle: saline with Tween-80
[13] = dose: 25.0 mg/kg/injection, schedule: Q01DX009 (ip), vehicle: saline with Tween-80
[14] = dose: 60.0 mg/kg/injection, schedule: Q01DX005 (ip), vehicle: Klucel (hydroxypropylcellulose) (HPC)
[15] = dose: 120.0 mg/kg/injection, schedule: Q01DX005 (ip), vehicle: Klucel (hydroxypropylcellulose) (HPC)
[16] = dose: 240.0 mg/kg/injection, schedule: Q01DX005 (ip), vehicle: Klucel (hydroxypropylcellulose) (HPC)
[17] = dose: 12.5 mg/kg/injection, schedule: Q04DX002 (ip), vehicle: saline with Tween-80
[18] = dose: 25.0 mg/kg/injection, schedule: Q04DX002 (ip), vehicle: saline with Tween-80
[19] = dose: 50.0 mg/kg/injection, schedule: Q04DX002 (ip), vehicle: saline with Tween-80

Measured: T/C

CC(=O)CC(=O)Nc1cc(Cl)c(NC(=O)CC(C)=O)cc1Cl
inactive: dose: 100.0 mg/kg/injection, schedule: Q04DX003 (ip), vehicle: saline with Tween-80 100 % of control | dose: 200.0 mg/kg/injection, schedule: Q04DX003 (ip), vehicle: saline with Tween-80 104 % of control | dose: 400.0 mg/kg/injection, schedule: Q04DX003 (ip), vehicle: saline with Tween-80 95 % of control

O=C1CC(SC(=S)N2CCCCC2)C(=O)N1c1ccccc1 (centres undefined)
inactive: [1] 105 % of control and 98 % of control | [2] 100 % of control and 109 % of control | dose: 400.0 mg/kg/injection, schedule: Q04DX002 (ip), vehicle: saline 100 % of control and 104 % of control

C=C1CCC2C(c3c(C)c(O)c4c(c31)C(=O)C(C)C4)C2(C)C (centres undefined)
inactive: dose: 3.0 mg/kg/injection, schedule: Q01DX009 (ip), vehicle: Klucel (hydroxypropylcellulose) (HPC) 110 % of control | dose: 6.0 mg/kg/injection, schedule: Q01DX009 (ip), vehicle: Klucel (hydroxypropylcellulose) (HPC) 108 % of control | dose: 12.0 mg/kg/injection, schedule: Q01DX009 (ip), vehicle: Klucel (hydroxypropylcellulose) (HPC) 103 % of control | dose: 24.0 mg/kg/injection, schedule: Q01DX009 (ip), vehicle: Klucel (hydroxypropylcellulose) (HPC) 108 % of control

C[Si](C)(C)C12CC3(CCCCC3)C1NC(=O)NC2=O (centres undefined)
inactive: dose: 25.0 mg/kg/injection, schedule: Q01DX005 (ip), vehicle: Klucel (hydroxypropylcellulose) (HPC) 108 % of control | [3] 96 % of control | [4] 90 % of control | [5] 88 % of control

COC(=O)C(=O)C1CCc2c(C(=O)OC)nc3[nH]n(-c4ccccc4)c(=O)c3c21 (centres undefined)
inactive: dose: 60.0 mg/kg/injection, schedule: Q01DX005 (ip), vehicle: saline with Tween-80 111 % of control | dose: 120.0 mg/kg/injection, schedule: Q01DX005 (ip), vehicle: saline with Tween-80 94 % of control | dose: 240.0 mg/kg/injection, schedule: Q01DX005 (ip), vehicle: saline with Tween-80 88 % of control

COc1cc(OC)c(NC(=O)O/N=C(\c2ccccc2)C(O)c2ccccc2)cc1Cl (centres undefined)
inactive: [6] 91 % of control | [7] 91 % of control | [8] 90 % of control

CC1(C#N)CCCC(c2ccccc2)(c2ccccc2)C1=O (centres undefined)
inactive: dose: 100.0 mg/kg/injection, schedule: Q04DX003 (ip), vehicle: Klucel (hydroxypropylcellulose) (HPC) 103 % of control | dose: 200.0 mg/kg/injection, schedule: Q04DX003 (ip), vehicle: Klucel (hydroxypropylcellulose) (HPC) 98 % of control | dose: 400.0 mg/kg/injection, schedule: Q04DX003 (ip), vehicle: Klucel (hydroxypropylcellulose) (HPC) 100 % of control

CC(NC(=O)c1cccc2c1Oc1ccccc1S2)C(=O)O (centres undefined)
inactive: dose: 50.0 mg/kg/injection, schedule: Q04DX002 (ip), vehicle: saline 104 % of control | [1] 98 % of control | [9] 93 % of control | [2] 99 % of control

CC1(C)CC(=O)C(CC(=O)c2ccccc2)=C(NNc2ccncc2)C1
inactive: dose: 50.0 mg/kg/injection, schedule: Q01DX009 (ip), vehicle: Klucel (hydroxypropylcellulose) (HPC) 94 % of control | dose: 100.0 mg/kg/injection, schedule: Q01DX009 (ip), vehicle: Klucel (hydroxypropylcellulose) (HPC) 95 % of control | dose: 200.0 mg/kg/injection, schedule: Q01DX009 (ip), vehicle: Klucel (hydroxypropylcellulose) (HPC) 91 % of control

Cc1ccc(S(=O)(=O)N2c3ccccc3CCN2/C=C/c2ccccc2)cc1
inactive: [3] 100 % of control | [4] 93 % of control | [5] 96 % of control

Brc1cccc[n+]1Cc1cc2ccccc2c2ccccc12
inactive: dose: 25.0 mg/kg/injection, schedule: Q04DX002 (ip), vehicle: Klucel (hydroxypropylcellulose) (HPC) 105 % of control | dose: 50.0 mg/kg/injection, schedule: Q04DX002 (ip), vehicle: Klucel (hydroxypropylcellulose) (HPC) 106 % of control | dose: 100.0 mg/kg/injection, schedule: Q04DX002 (ip), vehicle: Klucel (hydroxypropylcellulose) (HPC) 112 % of control

CC(C)=CC(=O)Sc1ccccc1
inactive: [10] 101 % of control | [11] 94 % of control | [12] 102 % of control and 104 % of control

O=C(/C=C/c1ccccc1)NOC(=O)/C=C/c1ccccc1
inactive: [13] 107 % of control | [6] 107 % of control and 123 % of control | [7] 111 % of control and 114 % of control | [8] 115 % of control

O=C(NCCCCCCCCCNC(=O)C12CC3CC(CC(C3)C1)C2)C12CC3CC(CC(C3)C1)C2
inactive: [10] 93 % of control | [11] 93 % of control | [12] 88 % of control | dose: 200.0 mg/kg/injection, schedule: Q01DX005 (ip), vehicle: saline with Tween-80 90 % of control

O=C(/C=C/c1c2ccccc2cc2ccccc12)c1ccc(C(=O)/C=C/c2c3ccccc3cc3ccccc23)cc1
inactive: dose: 12.5 mg/kg/injection, schedule: Q01DX009 (ip), vehicle: saline with Tween-80 105 % of control | [13] 90 % of control

Cc1cc(C)c2c(=O)n(-c3ccc(Br)cc3)c(=S)n(-c3ccc(Br)cc3)c2n1
inactive: [10] 99 % of control | [11] 97 % of control | [12] 87 % of control and 95 % of control

O=S(=O)(c1cccc(C(F)(F)F)c1)N(CCCCCN(S(=O)(=O)c1cccc(C(F)(F)F)c1)S(=O)(=O)c1cccc(C(F)(F)F)c1)S(=O)(=O)c1cccc(C(F)(F)F)c1
inactive: [14] 101 % of control | [15] 92 % of control | [16] 88 % of control

Oc1ccccc1C=NCc1ccccc1.[CH-]=C([CH2-])C.[Pd+2]
inactive: dose: 6.25 mg/kg/injection, schedule: Q01DX009 (ip), vehicle: Klucel (hydroxypropylcellulose) (HPC) 107 % of control | dose: 6.25 mg/kg/injection, schedule: Q04DX003 (ip), vehicle: Klucel (hydroxypropylcellulose) (HPC) 92 % of control | dose: 12.5 mg/kg/injection, schedule: Q01DX009 (ip), vehicle: Klucel (hydroxypropylcellulose) (HPC) 106 % of control | dose: 12.5 mg/kg/injection, schedule: Q04DX003 (ip), vehicle: Klucel (hydroxypropylcellulose) (HPC) 113 % of control | dose: 25.0 mg/kg/injection, schedule: Q01DX009 (ip), vehicle: Klucel (hydroxypropylcellulose) (HPC) 106 % of control | dose: 25.0 mg/kg/injection, schedule: Q04DX003 (ip), vehicle: Klucel (hydroxypropylcellulose) (HPC) 111 % of control

C[C@H]1O[C@H](C)[C@H](O)C2=C1C(=O)c1ccccc1C2=O
inactive: [17] 100 % of control and 95 % of control | [18] 99 % of control and 100 % of control and 96 % of control | [19] 99 % of control and 110 % of control and 94 % of control

CC1CC[N-]C(N)N1.CC1CC[N-]C(N)N1.[Cl][Pd][Cl] (centres undefined)
inactive: [14] 97 % of control | [15] 97 % of control | [16] 90 % of control

[Cl][Cu][Cl].[NH-]C1CCCC2CCC[N-]C12 (centres undefined)
inactive: [17] 106 % of control

COc1c(OC)c(OC)c(-c2cc(=O)c3c(OC)cccc3o2)c(OC)c1OC
inactive: dose: 25.0 mg/kg/injection, schedule: Q01DX005 (ip), vehicle: distilled water + Tween-80 + alcohol 102 % of control | dose: 50.0 mg/kg/injection, schedule: Q01DX005 (ip), vehicle: distilled water + Tween-80 + alcohol 96 % of control | dose: 100.0 mg/kg/injection, schedule: Q01DX005 (ip), vehicle: distilled water + Tween-80 + alcohol 95 % of control

CCOC(=O)C(=CNc1ccc2c(C)cc3ccc(C(=O)OCC)c(=O)n3c2n1)C(=O)OCC
inactive: [3] 88 % of control | [4] 86 % of control

CCc1cccc(CC)c1NC(=O)C(Sc1nc(-c2cccs2)cc(C(F)(F)F)c1C#N)c1ccccc1 (centres undefined)
inactive: [3] 94 % of control | [4] 94 % of control | [5] 89 % of control

CNc1ncnc2ccccc12
inactive: [13] 100 % of control | [6] 95 % of control | [7] 89 % of control

CCOC(=O)c1c(C)c(C(=O)OCC)n2cnc(C(=O)OC)cc12
inactive: [18] 97 % of control | [19] 106 % of control and 94 % of control | dose: 100.0 mg/kg/injection, schedule: Q04DX002 (ip), vehicle: saline with Tween-80 103 % of control and 122 % of control and 97 % of control | [9] 104 % of control (2×) and 97 % of control | dose: 400.0 mg/kg/injection, schedule: Q04DX002 (ip), vehicle: saline with Tween-80 113 % of control
